Experiments:
[1] = target: CSF1R phosphorylation in THP-1 cells (Homo sapiens (Human), UniProt P07333); experiment: Detection of CSF1R phosphorylation activity at cell level (p-CSF1R ELISA, M-CSF stimulated THP-1 cells); type: cell-based; settings: THP-1 cells, M-CSF stimulation, p-CSF1R ELISA; read-out: IC50
Procedure: THP-1 (ATCC), human acute monocytic leukemia cells.
3. Treatment of cells and preparation of lysis buffer
5 μL. of the diluted compound was added to the 50 μL cell culture system, the culture was cultured in a 5% CO2, 37° C. cell incubator for 60 min, 300 ng/mL of M-CSF was added to the cells, and the mixture was stimulated in the 37° C. cell incubator for 1 min, added 50 μL of cell lysis buffer, and stored in a refrigerator at −80° C.
100 μL/well of the p-CSF1R capture antibody diluted to 0.8 μg/mL with PBS was added to the ELISA plate, and the plate was coated on a shaker at room temperature overnight. The culture was washed with PBST, and then added blocking solution and incubated at room temperature for 2 h. The culture was washed with PBST, added 90 μL of cell lysis buffer, and incubated on a shaker at 25° C. for 2 h. The plate was washed with PBST three times, added 100 μL of anti-p-tyrosine-HRP detection antibody diluted with 0.1% PBS-BSA diluent, and incubated on a shaker at 25° C. for 2 h. The plate was washed with PBST washing liquid, added 100 μL of chromogenic substrate and incubated at room temperature for 10-20 min. The reaction was stopped by adding 50 μL of 2N H2SO4. The optical density signal (450/570 nm) of each well was detected in Labsystems Multiskan K3 or Envision.
wherein • Drug-treated well read-out: indicating the optical density signal of a cell well with the test compound treatment. • Background read-out: indicating the optical density signal of a well without cells but with cell lysis buffer. • Cell well read-out: indicating the optical density signal of a cell well not treated with the compound.
6. Calculation of IC50: obtained by using XL-Fit 5.3 software, […]

[2] = target: Recombinant human CSF1R kinase (Homo sapiens (Human), UniProt P07333); experiment: Measurement of CSF1R kinase activity at molecular level (Z-LYTE); type: biochemical; settings: Z-LYTE Tyr 1 peptide
Chain of Recombinant human CSF1R kinase (P07333 20-972): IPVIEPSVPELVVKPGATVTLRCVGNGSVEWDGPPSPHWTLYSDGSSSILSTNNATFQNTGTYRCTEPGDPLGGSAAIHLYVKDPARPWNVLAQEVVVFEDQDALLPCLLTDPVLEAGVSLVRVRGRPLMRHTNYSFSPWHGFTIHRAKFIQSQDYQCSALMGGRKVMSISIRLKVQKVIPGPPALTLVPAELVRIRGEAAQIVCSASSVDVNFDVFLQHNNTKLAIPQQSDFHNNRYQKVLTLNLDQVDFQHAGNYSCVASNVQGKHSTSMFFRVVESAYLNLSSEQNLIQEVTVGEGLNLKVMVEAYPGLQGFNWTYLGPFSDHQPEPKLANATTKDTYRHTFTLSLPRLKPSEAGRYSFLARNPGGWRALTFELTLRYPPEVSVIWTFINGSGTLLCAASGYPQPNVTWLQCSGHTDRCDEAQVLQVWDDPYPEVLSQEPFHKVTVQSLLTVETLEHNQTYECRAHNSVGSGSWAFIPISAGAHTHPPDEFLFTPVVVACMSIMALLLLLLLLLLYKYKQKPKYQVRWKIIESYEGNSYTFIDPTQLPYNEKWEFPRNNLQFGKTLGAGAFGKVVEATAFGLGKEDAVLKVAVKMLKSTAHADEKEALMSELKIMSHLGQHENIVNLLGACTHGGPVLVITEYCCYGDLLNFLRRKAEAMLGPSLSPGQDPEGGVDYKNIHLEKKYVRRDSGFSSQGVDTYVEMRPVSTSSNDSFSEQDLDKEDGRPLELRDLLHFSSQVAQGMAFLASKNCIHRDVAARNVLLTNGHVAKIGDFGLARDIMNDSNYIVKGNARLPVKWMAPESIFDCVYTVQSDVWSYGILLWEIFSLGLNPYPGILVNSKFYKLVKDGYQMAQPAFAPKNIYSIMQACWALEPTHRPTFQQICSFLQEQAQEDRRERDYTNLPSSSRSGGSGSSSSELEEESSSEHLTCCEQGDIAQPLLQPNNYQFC
Procedure: Invitrogen, PV3227; • Development reagent B: Invitrogen, PV3295; • Development buffer: Invitrogen. P3127; • Stopping solution: Invitrogen, P3094; • Recombinant human CSF1R kinase: Invitrogen, P[…]; • 384 well plate, black: Corning. 3575; • Envision: Perkin Elmer. 2. […] The test compound was diluted in gradient to 4-fold the reaction concentration and the concentration of DMSO was kept at 8%. […] The mixture was mixed gently with a pipette. • 4) A phosphorylated peptide substrate solution (PP solution): 0.4 μL of Z-LYTETM Tyr1 phosphorylated peptide substrate was added to 99.6 μl of 1.33× kinase buffer. • 5) ATP solution: 10 mM of ATP was diluted to 760 μM with 1.33× kinase buffer to prepare ATP solution. • 6) Development solution: Development reagent B was diluted with Development buffer at a ratio of 1:200. 3. […] 2.5 μL of 4× test compound was added to each reaction well of the 384 plate, and the corresponding volume of 8% DMSO was added to the control well. The plate was placed on ice. […] After adding the reaction components, the 384-well plate was sealed and incubated at 25-30° C. for 1 h in dark. 2) Development Reaction 5 μL of Development solution was added to each well, sealed and incubated at 25-30° C. for another 1 h in dark. 3) Reaction Stopping and Plate Reading 5 μL of stopping solution was added to each well. The Coumarin value (excitation at 400 nm, emission at 445 nm) and Fluorescein value (excitation at 400 nm, emission at 520 nm) were measured, respectively. 4. […] Coumarin emission read-out (445 nm)/Fluorescein emission read-out (520 nm); • C3 445 nm: 100% phosphorylated Coumarin emission read-out; • C3 520 nm: 100% phosphorylated Fluorescein emission read-out; • C1 445 nm: 0% phosphorylated Coumarin emission read-out; • C1 520 nm: 0% phosphorylated Fluorescein emission read-out. […] 5. IC50 values: calculated by using software XL-FitTM (version 5.3) supplied by ID Business Solutions (Guildford, UK), which is an additional software to Microsoft Excel.

Chain of CSF1R phosphorylation in THP-1 cells (P07333 20-972): as above

## COc1cc(Oc2ccc3ncc(C4CC4)c(=O)n3c2)cnc1OCc1ccc(C)cc1 [Compound 36]
[1]
  IC50: 56 nM
[2]
  IC50: 21 nM

## COc1ccc([C@@H]2COc3cc(Oc4ccc5nccc(=O)n5c4)cnc3O2)cc1 [Compound 63]
[1]
  IC50: 18 nM
[2]
  IC50: 5 nM

## COc1ccc([C@@H]2COc3cc(Oc4ccc5nccc(=O)n5c4)cnc3O2)cn1 [Compound 85]
[1]
  IC50: 154 nM
[2]
  IC50: 17 nM

## COc1ccc([C@@H]2COc3cc(Oc4ccc5ncc(C)c(=O)n5c4)cnc3O2)cc1 [Compound 65]
[1]
  IC50: 10 nM
[2]
  IC50: 5 nM

## COc1cc(Oc2ccc3ncc(C)c(=O)n3c2)cnc1OCc1ccccc1 [Compound 43]
[1]
  IC50: 54 nM
[2]
  IC50: 4 nM

## Cc1cnc2ccc(Oc3cnc(OCc4ccc(Cl)cc4)nc3)cn2c1=O [Compound 41]
[1]
  IC50: 551 nM
[2]
  IC50: 23 nM

## COc1cc(Oc2ccc3ncc(C)c(=O)n3c2)cnc1OCc1ccc(C(C)C)cc1 [Compound 8]
[1]
  IC50: 29 nM
[2]
  IC50: 67 nM

## COc1cc(Oc2ccc3ncc(C)c(=O)n3c2)cnc1OCc1ccc(C)cc1 [Compound 44]
[1]
  IC50: 19 nM
[2]
  IC50: 4 nM

## COc1cc(Oc2ccc3ncc(N)c(=O)n3c2)cnc1OCc1ccc(C)cc1 [Compound 35]
[1]
  IC50: 12 nM
[2]
  IC50: 6 nM

## Cc1cnc2ccc(Oc3cnc4c(c3)OC[C@@H](c3ccc(C5CC5)cn3)O4)cn2c1=O [Compound 76]
[1]
  IC50: 18 nM
[2]
  IC50: 8 nM

## Cc1cnc2ccc(Oc3cnc4c(c3)OC[C@H](c3ccc(C5CC5)cn3)O4)cn2c1=O [Compound 75]
[1]
  IC50: 117 nM
[2]
  IC50: 15 nM

## COc1cc(Oc2ccc3nccc(=O)n3c2)cnc1OCc1ccc(C2CC2)cc1 [Compound 25]
[1]
  IC50: 4 nM
[2]
  IC50: 8 nM

## COc1cc(Oc2ccc3ncc(C)c(=O)n3c2)cnc1OCc1ccc(C2CC2)c(F)c1 [Compound 9]
[1]
  IC50: 6 nM
[2]
  IC50: 63 nM

## Cn1cc(-c2cc(Oc3cnc4c(c3)OC[C@H](c3ccc(C5CC5)cn3)O4)ccn2)cn1 [Compound 73]
[1]
  IC50: 17 nM
[2]
  IC50: 6 nM

## Cc1cnc2ccc(Oc3cnc4c(c3)OCC(c3ccc(C5CC5)cc3)O4)cn2c1=O (stereo not drawn) [Compound 45, 7-((3-(4-cyclopropylphenyl)-2,3-dihydro-[1,4]dioxino[2,3-b]pyrin-7-yl)oxy)-3-methyl-4H-pyrido[1,2-a]pyrimidin-4-one]
[1]
  IC50: 61 nM
[2]
  IC50: 36 nM

## O=c1ccnc2ccc(Oc3cnc4c(c3)OC[C@@H](c3ccc(C5CC5)nc3)O4)cn12 [Compound 59]
[1]
  IC50: 50 nM
[2]
  IC50: 5 nM

## COc1ccc([C@@H]2COc3cc(Oc4ccnc(-c5cnn(C)c5)c4)cnc3O2)cn1 [Compound 69]
[1]
  IC50: 17 nM
[2]
  IC50: 3 nM

## COc1cc(Oc2ccc3ncc(N)c(=O)n3c2)cnc1OCc1ccc(-n2cccn2)cc1 [Compound 24]
[1]
  IC50: 34 nM
[2]
  IC50: 3 nM

## COc1cc(Oc2ccc3ncc(C)c(=O)n3c2)cnc1OCc1ccc(C2CC2)cc1F [Compound 11]
[1]
  IC50: 164 nM
[2]
  IC50: 61 nM

## COc1ccc([C@@H]2COc3cc(Oc4ccnc(-c5cnn(C)c5)c4)cnc3O2)cc1 [Compound 67]
[1]
  IC50: 16 nM
[2]
  IC50: 5 nM

## Cc1cnc2ccc(Oc3cnc(OCc4ccc(C5CC5)cc4)c(OCF)c3)cn2c1=O [Compound 14]
[1]
  IC50: 48 nM
[2]
  IC50: 28 nM

## COc1ccc([C@H]2COc3cc(Oc4ccc5ncc(C)c(=O)n5c4)cnc3O2)cn1 [Compound 84]
[1]
  IC50: 84 nM
[2]
  IC50: 8 nM

## COc1ccc([C@@H]2COc3cc(Oc4ccnc(-c5cnn(C)c5)c4)cnc3O2)nc1 [Compound 82]
[1]
  IC50: 13 nM
[2]
  IC50: 11 nM

## OCCn1cc(-c2cc(Oc3cnc4c(c3)OCC(c3ccc(C5CC5)cc3)O4)ccn2)cn1 (stereo not drawn) [Compound 52, 2-(4-(4-((3-(4-cyclopropylphenyl)-2,3-dihydro-[1,4]dioxino[2,3-b]pyridin-7-yl)oxy)pyridin-2-yl)-1H-pyrazol-1-yl)ethan-1-ol]
[1]
  IC50: 34 nM
[2]
  IC50: 19 nM

## COc1ccc([C@H]2COc3cc(Oc4ccnc(-c5cnn(C)c5)c4)cnc3O2)cc1 [Compound 68]
[1]
  IC50: 21 nM
[2]
  IC50: 6 nM

## COc1cc(Oc2ccc3c(c2)C2=NCCN2C=N3)cnc1OCc1ccc(C2CC2)cc1 [Compound 17]
[1]
  IC50: 18 nM
[2]
  IC50: 15 nM

## COc1ccc([C@@H]2COc3cc(Oc4ccc5nccc(=O)n5c4)cnc3O2)nc1 [Compound 78]
[1]
  IC50: 64 nM
[2]
  IC50: 26 nM

## COc1ccc([C@@H]2COc3cc(Oc4ccc5ncc(C)c(=O)n5c4)cnc3O2)nc1 [Compound 80]
[1]
  IC50: 22 nM
[2]
  IC50: 13 nM

## O=c1ccnc2ccc(Oc3cnc4c(c3)OC[C@@H](c3ccc(C5CC5)cn3)O4)cn12 [Compound 72]
[1]
  IC50: 32 nM
[2]
  IC50: 14 nM

## COc1ccc([C@@H]2COc3cc(Oc4ccc5ncc(C)c(=O)n5c4)cnc3O2)cn1 [Compound 86]
[1]
  IC50: 56 nM
[2]
  IC50: 8 nM

## Cc1cnc2ccc(Oc3cnc(OCc4ccc(C5CC5)cc4)nc3)cn2c1=O [Compound 42]
[1]
  IC50: 78 nM
[2]
  IC50: 13 nM

## COc1cc(Oc2ccc3ncc(C)c(=O)n3c2)cnc1OCc1ccc(C2CC2F)cc1 (stereo not drawn) [Compound 13]
[1]
  IC50: 17 nM
[2]
  IC50: 8 nM

## COc1cccc(CCOc2ncc(Oc3ccc4ncc(C)c(=O)n4c3)cc2OC)c1 [Compound 39]
[1]
  IC50: 300 nM
[2]
  IC50: 15 nM

## COc1ccc(COc2ncc(Oc3ccc4ncc(N)c(=O)n4c3)cc2OC)cc1 [Compound 32]
[1]
  IC50: 4 nM
[2]
  IC50: 3 nM

## Cn1cc(-c2cc(Oc3cnc4c(c3)OCC(c3ccc(C5CC5)cc3)O4)ccn2)cn1 (racemic) [Compound 51, (R/S)-3-(4-cyclopropylphenyl)-7-((2-(1-methyl-1H-pyrazol-4-yl)pyridin-4-yl)oxy)-2,3-dihydro-[1,4]dioxino[2,3-b]pyridine]
[1]
  IC50: 6 nM
[2]
  IC50: 8 nM

## Cc1cnc2ccc(Oc3cnc4c(c3)OC[C@@H](c3ccc(C5CC5)nc3)O4)cn2c1=O [Compound 61]
[1]
  IC50: 29 nM
[2]
  IC50: 3 nM

## COc1ccc([C@H]2COc3cc(Oc4ccc5nccc(=O)n5c4)cnc3O2)cn1 [Compound 83, (S)-7-((3-(6-methoxypyridin-3-yl)-2,3-dihydro-[1,4]dioxino[2,3-b]pyridin-7-yl)oxy)-4H-pyrido[1,2-a]pyrimidin-4-one]
[1]
  IC50: 138 nM
[2]
  IC50: 7 nM

## COc1cc(Oc2ccc3ncccc3c2)cnc1OCc1ccc(C2CC2)cc1 [Compound 18]
[1]
  IC50: 5 nM
[2]
  IC50: 33 nM

## Cn1cc(-c2cc(Oc3cnc4c(c3)OCC(c3ccc(C5CC5)nc3)O4)ccn2)cn1 (racemic) [Compound 54, (R/S)-3-(6-cyclopropylpyridin-3-yl)-7-((2-(1-methyl-1H-pyrazol-4-yl)pyridin-4-yl)oxy)-2,3-dihydro-[1,4]dioxino[2,3-b]pyridine]
[1]
  IC50: 22 nM
[2]
  IC50: 2 nM

## O=c1ccnc2ccc(Oc3cnc4c(c3)OCC(c3ccc(C5CC5)cc3)O4)cn12 (racemic) [Compound 56, (R/S)-7-((3-(4-cyclopropylphenyl)-2,3-dihydro-[1,4]dioxino[2,3-b]pyridin-7-yl)oxy)-4H-pyrido[1,2-a]pyrimidin-4-one]
[1]
  IC50: 14 nM
[2]
  IC50: 12 nM

## COc1ccc(COc2ncc(Oc3ccc4ncc(C)c(=O)n4c3)cn2)cc1 [Compound 29]
[1]
  IC50: 23 nM
[2]
  IC50: 6 nM

## COc1cc(Oc2ccc3ncc(C)c(=O)n3c2)cnc1OCc1ccc(C2CC2)cc1 [Compound 21]
[1]
  IC50: 8 nM
[2]
  IC50: 13 nM
